Consider eleven compounds from PubChem BioAssay (NCI).

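Each compound was tested at five concentrations against cells in 96-well plates for 48 hours. Here, GI50 denotes the concentration required for 50% inhibition of growth. TGI is the concentration that stops growth completely.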 Where only a bound is given, the exact number is not on record here.

Test systems include SK-MEL-5 melanoma; SK-MEL-2 melanoma; HOP-62 NSCLC; A498 renal; 786-0 renal; HT29 colon; OVCAR-5 ovarian; MCF7 breast; SNB-19 CNS; CAKI-1 renal; NCI-H522 lung.
What all share (assay): growth of human tumour cells (NCI), 48 h

Turning to `C1=CC(=[N+]2N=C(c3ccccc3)CC2c2ccccc2)C=CC1=C1SC(c2ccccc2)(c2ccccc2)c2ccccc21` (stereo not drawn), the TGI with SK-MEL-5 melanoma, in the test on SK-MEL-2 melanoma, in the test with HOP-62 NSCLC, in the test on A498 renal, in the test on 786-0 renal and with HT29 colon was above 100 µM throughout. Also, the TGI with OVCAR-5 ovarian, in the test on MCF7 breast and with SNB-19 CNS was above 100 µM in each case.
Take `O=C1CC2(CCC(O)(c3cccs3)C(C(=O)c3cccs3)C2)C(=O)c2ccccc2N1` (stereo not drawn): the TGI with SK-MEL-5 melanoma, with SK-MEL-2 melanoma, in the test with HOP-62 NSCLC, in the test on A498 renal, in the test with HT29 colon and in the test on OVCAR-5 ovarian was above 100 µM each time. In addition, the TGI in the test with MCF7 breast and in the test on CAKI-1 renal was above 100 µM in each case.
With `CC(C)(C)[Si](C)(C)OCC1OC(n2cnc3c(N)ncnc32)CC1OS(C)(=O)=O` (stereo not drawn), the TGI with SK-MEL-2 melanoma, in the test with HOP-62 NSCLC, in the test with A498 renal, in the test with HT29 colon, in the test on OVCAR-5 ovarian and in the test on MCF7 breast was above 100 µM throughout. Also, the TGI in the test on SNB-19 CNS and in the test on CAKI-1 renal was above 100 µM in each case.
As to `CCCN1C(=O)CSC1=Nc1ccc2cc3ccc(N=C4SCC(=O)N4CCC)cc3nc2c1`, the GI50 in the test with SK-MEL-5 melanoma is 49 µM; in the test with SK-MEL-2 melanoma, above 100 µM; with A498 renal it was above 100 µM; in the test on HT29 colon it was 90.6 µM; with OVCAR-5 ovarian, above 100 µM; in the test on MCF7 breast it was 77.6 µM. The GI50 in the test on SNB-19 CNS is 95.4 µM; in the test on CAKI-1 renal, above 100 µM. In addition, the TGI is above 100 µM in the test on SK-MEL-5 melanoma; above 100 µM with SK-MEL-2 melanoma; above 100 µM in the test with A498 renal; 0.0603 µM in the test with 786-0 renal; above 100 µM with HT29 colon; above 100 µM with OVCAR-5 ovarian. Besides, the TGI in the test with MCF7 breast, in the test with SNB-19 CNS and in the test with CAKI-1 renal was above 100 µM throughout.
With `COc1ccc(C2c3cc4c(cc3OC(O)(CO)C2C(=O)O)OCO4)cc1` (stereo not drawn) (tested in a mixture with another compound), the TGI in the test with SK-MEL-5 melanoma is 39.5 µM; with SK-MEL-2 melanoma, 71.8 µM; in the test on HOP-62 NSCLC, above 100 µM; with A498 renal, above 100 µM; in the test with HT29 colon, 52.4 µM; in the test on OVCAR-5 ovarian, above 100 µM.
In the case of `N#Cc1c(N)nc2c(c1-c1ccc(Br)cc1)CSc1ccccc1-2`, the TGI with SK-MEL-5 melanoma, in the test on SK-MEL-2 melanoma, with HOP-62 NSCLC, with A498 renal, in the test with 786-0 renal and in the test with HT29 colon was above 100 µM in each case. Besides, the TGI was above 100 µM with MCF7 breast, above 100 µM with SNB-19 CNS and 68 µM in the test with CAKI-1 renal.
Turning to `CC(=O)Oc1ccc(CO)cc1OC(C)=O`, the TGI with SK-MEL-5 melanoma, in the test on NCI-H522 lung, in the test on SK-MEL-2 melanoma, in the test on HOP-62 NSCLC, with A498 renal and in the test on 786-0 renal was above 100 µM each time. In addition, the TGI in the test with HT29 colon, in the test with OVCAR-5 ovarian, with SNB-19 CNS and with CAKI-1 renal was above 100 µM throughout.
For the compound `CCOC(=O)C(=O)NCCCN1CCOCC1`, the TGI with SK-MEL-5 melanoma, in the test with NCI-H522 lung, in the test with SK-MEL-2 melanoma, with HOP-62 NSCLC, in the test with A498 renal and in the test with HT29 colon was above 100 µM throughout. Further, the TGI in the test on OVCAR-5 ovarian, with SNB-19 CNS and with CAKI-1 renal was above 100 µM throughout.
With `CC(=O)c1ccc2c(c1)N(CCCN1CCN(CCO)CC1)c1ccccc1C2`, the TGI with SK-MEL-5 melanoma amounted to 25.6 µM; in the test on NCI-H522 lung, 31.2 µM; in the test with SK-MEL-2 melanoma it was 33.5 µM; with HOP-62 NSCLC, 30.3 µM; in the test on A498 renal, 30.1 µM; in the test on 786-0 renal, 31.5 µM. Moreover, the TGI in the test on HT29 colon turned out to be 22.4 µM; with OVCAR-5 ovarian it was 32.1 µM; in the test on SNB-19 CNS, 33.8 µM; with CAKI-1 renal, 26.9 µM.
Regarding `COC(=S)OC1CC(n2cnc3c(N)ncnc32)OC1CO[Si](C)(C)C(C)(C)C` (stereo not drawn), the TGI with SK-MEL-2 melanoma worked out at 53.8 µM; in the test on HOP-62 NSCLC, 32.8 µM; in the test with A498 renal, 56.9 µM; with HT29 colon it was 30.1 µM; with OVCAR-5 ovarian, 65.4 µM; in the test on MCF7 breast it was 44.8 µM. This compound also came in with a TGI in the test with SNB-19 CNS above 100 µM.
With `Cc1cc(=O)[nH]c(/N=C(\N)Nc2ccc(Cl)cc2)n1`, the TGI in the test on SK-MEL-5 melanoma, in the test with NCI-H522 lung, in the test with SK-MEL-2 melanoma, in the test on HOP-62 NSCLC, in the test with A498 renal and in the test on 786-0 renal was above 100 µM each time. For the same compound, the TGI with HT29 colon, in the test with OVCAR-5 ovarian, in the test with SNB-19 CNS and in the test on CAKI-1 renal was above 100 µM throughout.
